Measurements published in patent publication US20230102554A1 (GB002, INC., priority 2019, published 2023).
pIC50: −log10 of the molar value.

Columns and labels:
[1] = biological target: T1, Human PDGFRα, cytoplasmic domain (GST-PDGFRα) (Homo sapiens, UniProt P16234); assay: Human PDGFRα biochemical inhibition assay (off-chip Mobility Shift Assay)
T1 construct: made in house

[2] = biological target: T2, Human PDGFRβ, cytoplasmic domain (GST-PDGFRβ) (Homo sapiens, UniProt P09619); assay: Human PDGFRβ biochemical inhibition assay (off-chip Mobility Shift Assay)
T2 construct: made in house
T2 sequence (P09619 with tags, fused parts or gaps): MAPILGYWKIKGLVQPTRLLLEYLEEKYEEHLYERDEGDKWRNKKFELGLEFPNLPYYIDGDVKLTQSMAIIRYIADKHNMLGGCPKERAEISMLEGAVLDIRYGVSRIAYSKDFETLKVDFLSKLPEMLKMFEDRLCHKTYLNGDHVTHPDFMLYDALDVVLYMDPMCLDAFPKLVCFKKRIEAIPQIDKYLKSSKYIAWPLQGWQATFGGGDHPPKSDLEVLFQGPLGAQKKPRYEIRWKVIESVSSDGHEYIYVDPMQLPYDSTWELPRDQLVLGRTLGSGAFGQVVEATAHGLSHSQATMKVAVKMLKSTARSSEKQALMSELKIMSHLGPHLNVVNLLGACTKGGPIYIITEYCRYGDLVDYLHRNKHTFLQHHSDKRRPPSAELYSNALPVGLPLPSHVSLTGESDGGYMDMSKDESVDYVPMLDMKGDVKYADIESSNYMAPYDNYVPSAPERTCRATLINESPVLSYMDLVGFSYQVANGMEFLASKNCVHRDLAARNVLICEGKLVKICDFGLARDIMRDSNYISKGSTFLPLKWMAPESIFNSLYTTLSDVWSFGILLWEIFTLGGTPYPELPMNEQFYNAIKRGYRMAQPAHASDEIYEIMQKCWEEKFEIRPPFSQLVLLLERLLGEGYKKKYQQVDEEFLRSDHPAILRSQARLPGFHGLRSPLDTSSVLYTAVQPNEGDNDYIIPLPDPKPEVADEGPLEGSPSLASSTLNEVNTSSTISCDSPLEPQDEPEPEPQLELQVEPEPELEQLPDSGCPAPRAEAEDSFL
In short: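 GST-tagged cytoplasmic domain (aa 557-1106) from baculovirus was incubated 1 h at room temperature with compound, CSKtide, ATP at Km and Mg²⁺ in HEPES buffer, pH 7.5. Phosphorylated and unphosphorylated peptide were separated by off-chip mobility shift, and the product ratio P/(P+S) gave percent inhibition.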

T1 sequence (P16234 550-1089 T674I): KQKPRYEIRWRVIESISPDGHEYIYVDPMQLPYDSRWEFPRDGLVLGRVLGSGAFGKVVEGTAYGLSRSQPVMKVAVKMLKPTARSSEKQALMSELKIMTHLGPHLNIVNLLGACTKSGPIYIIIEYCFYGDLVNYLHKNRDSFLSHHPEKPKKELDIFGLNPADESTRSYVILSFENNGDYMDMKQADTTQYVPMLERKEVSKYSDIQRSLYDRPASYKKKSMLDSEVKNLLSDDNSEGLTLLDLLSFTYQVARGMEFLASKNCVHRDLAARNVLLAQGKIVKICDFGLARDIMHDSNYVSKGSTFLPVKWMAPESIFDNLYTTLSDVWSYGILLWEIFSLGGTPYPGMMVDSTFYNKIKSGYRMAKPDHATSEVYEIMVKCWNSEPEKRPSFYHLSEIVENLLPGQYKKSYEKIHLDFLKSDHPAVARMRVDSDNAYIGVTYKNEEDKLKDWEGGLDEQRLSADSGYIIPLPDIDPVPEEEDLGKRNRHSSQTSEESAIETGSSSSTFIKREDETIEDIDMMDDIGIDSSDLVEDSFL

Row | Compound | pIC50 [1] | pIC50 [2]
1 | CCn1cc2ncc(N[C@@H](C)c3cccc(NC(=O)c4cnc(CN5CC6(COC6)C5)c(F)c4)c3)nc2n1 [Compound 500, (S)-6-((2-oxa-6-azaspiro[3.3]heptan-6-yl)methyl)-N-(3-(1-((2-ethyl-2H-pyrazolo[3,4-b]pyrazin-6-yl)amino)ethyl)phenyl)-5-fluoronicotinamide] | ≤ 6.00 | ≤ 6.00
2 | Cc1cc(C(=O)Nc2cccc([C@H](C)Nc3cnc4cnn(C)c4n3)c2)cnc1O [Compound 253, (S)-6-hydroxy-5-methyl-N-(3-(1-((1-methyl-1H-pyrazolo[3,4-b]pyrazin-6-yl)amino)ethyl)phenyl)nicotinamide] | > 6.52 | ≤ 6.00
3 | Cc1ncc(C(=O)Nc2cccc([C@H](C)Nc3cnc4[nH]cc(-c5cnn(C)c5)c4n3)c2)s1 [Compound 583, (S)-2-methyl-N-(3-(1-((7-(1-methyl-1H-pyrazol-4-yl)-5H-pyrrolo[2,3-b]pyrazin-2-yl)amino)ethyl)phenyl)thiazole-5-carboxamide] | > 6.52 | > 6.52
4 | CCn1cc2ncc(N[C@@H](C)c3cc(NC(=O)Cc4cccc(C(F)(F)F)c4)ccc3F)nc2n1 [Compound 636, (S)-N-(3-(1-((2-ethyl-2H-pyrazolo[3,4-b]pyrazin-6-yl)amino)ethyl)-4-fluorophenyl)-2-(3-(trifluoromethyl)phenyl) acetamide] | > 6.52 | > 6.52
5 | C[C@H](Nc1cnc2cnn(C)c2n1)c1cccc(NC(=O)c2cnc(C(F)(F)F)s2)c1 [Compound 139, (S)-N-(3-(1-((1-methyl-1H-pyrazolo[3,4-b]pyrazin-6-yl)amino)ethyl)phenyl)-2-(trifluoromethyl)thiazole-5-carboxamide] | > 6.52 | > 6.52
6 | C[C@H](Nc1cnc2cnn(C)c2n1)c1cccc(NC(=O)c2ccc3c(c2)COC3=O)c1 [Compound 67, (S)-N-(3-(1-((1-methyl-1H-pyrazolo[3,4-b]pyrazin-6-yl)amino)ethyl)phenyl)-1-oxo-1,3-dihydroisobenzofuran-5-carboxamide] | > 6.52 | > 6.52
7 | CCOc1cncc(C(=O)Nc2cccc([C@H](C)Nc3cnc4cnn(C)c4n3)c2)c1 [Compound 242, (S)-5-ethoxy-N-(3-(1-((1-methyl-1H-pyrazolo[3,4-b]pyrazin-6-yl)amino)ethyl)phenyl)nicotinamide] | > 6.52 | > 6.52
8 | Cc1n[nH]c2ncc(N[C@@H](C)c3cccc(NC(=O)c4cncc(C(F)F)c4)c3)nc12 [Compound 532, (S)-5-(difluoromethyl)-N-(3-(1-((3-methyl-1H-pyrazolo[3,4-b]pyrazin-5-yl)amino)ethyl)phenyl)nicotinamide] | > 6.52 | > 6.52
9 | COc1cncc(C(=O)Nc2cccc([C@H](C)Nc3cnc4cnn(C)c4n3)c2)c1 [Compound 104, (S)-5-methoxy-N-(3-(1-((1-methyl-1H-pyrazolo[3,4-b]pyrazin-6-yl)amino)ethyl)phenyl)nicotinamide] | > 6.52 | > 6.52
10 | CCn1cc2ncc(N[C@@H](C)c3cccc(NC(=O)c4ccc(C)c(F)c4)c3)nc2n1 [Compound 344, (S)-N-(3-(1-((2-ethyl-2H-pyrazolo[3,4-b]pyrazin-6-yl)amino)ethyl)phenyl)-3-fluoro-4-methylbenzamide] | > 6.52 | > 6.52
11 | CCn1cc2ncc(N[C@@H](C)c3cc(NC(=O)c4ccc(C(F)(F)F)nc4)cc(F)c3F)nc2n1 [Compound 491, (S)-N-(3-(1-((2-ethyl-2H-pyrazolo[3,4-b]pyrazin-6-yl)amino)ethyl)-4,5-difluorophenyl)-6-(trifluoromethyl)nicotinamide] | 6.00 to 6.52 | 6.00 to 6.52
12 | CNc1ccc(C(=O)Nc2cccc([C@H](C)Nc3cnc4cnn(C)c4n3)c2)cn1 [Compound 120, (S)-N-(3-(1-((1-methyl-1H-pyrazolo[3,4-b]pyrazin-6-yl)amino)ethyl)phenyl)-6-(methylamino)nicotinamide] | > 6.52 | 6.00 to 6.52

Continued, values first:

Row | pIC50 [1] | pIC50 [2] | Compound
13 | > 6.52 | > 6.52 | CCn1cc2ncc(N[C@@H](C)c3cccc(NC(=O)c4ccc(CN5CCN(C)CC5)c(Cl)c4)c3)nc2n1 [Compound 417, (S)-3-chloro-N-(3-(1-((2-ethyl-2H-pyrazolo[3,4-b]pyrazin-6-yl)amino)ethyl)phenyl)-4-((4-methylpiperazin-1-yl)methyl) benzamide]
14 | > 6.52 | > 6.52 | CCn1cc2ncc(N[C@@H](C)c3cc(NC(=O)Cc4cncc(Cl)c4)ccc3C)nc2n1 [Compound 673, (S)-2-(5-chloropyridin-3-yl)-N-(3-(1-((2-ethyl-2H-pyrazolo[3,4-b]pyrazin-6-yl)amino)ethyl)-4-methylphenyl)acetamide]
15 | > 6.52 | > 6.52 | C[C@H](Nc1cnc2cnn(C)c2n1)c1cccc(NC(=O)N2CCc3ccccc3C2)c1 [Compound 55, (S)-N-(3-(1-((1-methyl-1H-pyrazolo[3,4-b]pyrazin-6-yl)amino)ethyl)phenyl)-3,4-dihydroisoquinoline-2(1H)-carboxamide]
16 | > 6.52 | > 6.52 | C[C@H](Nc1cnc2cnn(C)c2n1)c1cccc(NC(=O)c2cncc(C(C)(C)O)c2)c1 [Compound 107, (S)-5-(2-hydroxypropan-2-yl)-N-(3-(1-((1-methyl-1H-pyrazolo[3,4-b]pyrazin-6-yl)amino)ethyl)phenyl) nicotinamide]
17 | > 6.52 | > 6.52 | CCn1cc2ncc(N[C@@H](C)c3cccc(NC(=O)c4cnn(CC5CC5)c4)c3)nc2n1 [Compound 300, (S)-1-(cyclopropylmethyl)-N-(3-(1-((2-ethyl-2H-pyrazolo[3,4-b]pyrazin-6-yl)amino)ethyl)phenyl)-1H-pyrazole-4-carboxamide]
18 | > 6.52 | > 6.52 | Cc1cc2ncc(N[C@@H](C)c3cccc(NC(=O)c4cnn(C5CCC5)c4)c3)nc2s1 [Compound 609, (S)-1-cyclobutyl-N-(3-(1-((6-methylthieno[2,3-b]pyrazin-3-yl)amino)ethyl)phenyl)-1H-pyrazole-4-carboxamide]
19 | > 6.52 | ≤ 6.00 | CCn1cc2ncc(N[C@@H](C)c3cccc(NC(=O)Cc4cc(C)ccn4)c3)nc2n1 [Compound 678, (S)-N-(3-(1-((2-ethyl-2H-pyrazolo[3,4-b]pyrazin-6-yl)amino)ethyl)phenyl)-2-(4-methylpyridin-2-yl)acetamide]
20 | > 6.52 | > 6.52 | Cc1cc(C(=O)Nc2ccc(F)c([C@H](C)Nc3cnc4cnn(C)c4n3)c2)cnc1NC(C)C [Compound 232, (S)-N-(4-fluoro-3-(1-((1-methyl-1H-pyrazolo[3,4-b]pyrazin-6-yl)amino)ethyl)phenyl)-6-(isopropylamino)-5-methylnicotinamide]
21 | > 6.52 | > 6.52 | Cc1cncc(C(=O)Nc2cccc([C@H](C)Nc3cnc4[nH]ccc4n3)c2)c1 [Compound 552, (S)-N-(3-(1-((5H-pyrrolo[2,3-b]pyrazin-2-yl)amino)ethyl)phenyl)-5-methylnicotinamide]
22 | > 6.52 | > 6.52 | Cc1cc(C(=O)Nc2cccc([C@H](C)Nc3cnc4cnn(C)c4n3)c2)ccc1C(=O)OC(C)C [Compound 258, isopropyl (S)-2-methyl-4-((3-(1-((1-methyl-1H-pyrazolo[3,4-b]pyrazin-6-yl)amino)ethyl)phenyl)carbamoyl)benzoate]
23 | > 6.52 | > 6.52 | Cc1cncc(C(=O)Nc2cccc([C@H](C)Nc3cnc4cc(C)oc4c3)c2)c1 [Compound 22, (S)-5-methyl-N-(3-(1-((2-methylfuro[3,2-b]pyridin-6-yl)amino)ethyl)phenyl)nicotinamide]
24 | > 6.52 | ≤ 6.00 | CCn1cc2ncc(N[C@@H](C)c3cccc(NC(=O)c4ccc(CN5CCN(C)CC5)nc4)c3)nc2n1 [Compound 387, (S)-N-(3-(1-((2-ethyl-2H-pyrazolo[3,4-b]pyrazin-6-yl)amino)ethyl)phenyl)-6-((4-methylpiperazin-1-yl)methyl) nicotinamide]
25 | > 6.52 | > 6.52 | Cc1cncc(C(=O)Nc2cccc([C@H](C)Nc3cnc4cccc(Cl)c4n3)c2)c1 [Compound 37, (S)-N-(3-(1-((8-chloroquinoxalin-2-yl)amino)ethyl)phenyl)-5-methylnicotinamide]
26 | > 6.52 | 6.00 to 6.52 | CCn1cc2ncc(N[C@@H](C)c3cc(NC(=O)Cc4ccc(F)cn4)ccc3F)nc2n1 [Compound 649, (S)-N-(3-(1-((2-ethyl-2H-pyrazolo[3,4-b]pyrazin-6-yl)amino)ethyl)-4-fluorophenyl)-2-(5-fluoropyridin-2-yl)acetamide]
27 | > 6.52 | ≤ 6.00 | CCn1cc2ncc(N[C@@H](C)c3cc(NC(=O)Cc4ccc(C5CCC5)nc4)ccc3F)nc2n1 [Compound 671, (S)-2-(6-cyclobutylpyridin-3-yl)-N-(3-(1-((2-ethyl-2H-pyrazolo[3,4-b]pyrazin-6-yl)amino)ethyl)-4-fluorophenyl) acetamide]
28 | > 6.52 | > 6.52 | CCn1cc2ncc(N[C@@H](C)c3cc(NC(=O)c4cnn(CCF)c4)ccc3F)nc2n1 [Compound 311, (S)-N-(3-(1-((2-ethyl-2H-pyrazolo[3,4-b]pyrazin-6-yl)amino)ethyl)-4-fluorophenyl)-1-(2-fluoroethyl)-1H-pyrazole-4-carboxamide]
29 | > 6.52 | > 6.52 | Cc1cc(C(=O)Nc2cccc([C@H](C)Nc3cnc4cnn(C)c4n3)c2)cnc1CN1CCSCC1 [Compound 244, (S)-5-methyl-N-(3-(1-((1-methyl-1H-pyrazolo[3,4-b]pyrazin-6-yl)amino)ethyl)phenyl)-6-(thiomorpholinomethyl) nicotinamide]
30 | > 6.52 | > 6.52 | CCn1cc2ncc(N[C@@H](C)c3cccc(NC(=O)c4ccc(CN5CC6(CN(C)C6)C5)c(C)c4)c3)nc2n1 [Compound 473, (S)-N-(3-(1-((2-ethyl-2H-pyrazolo[3,4-b]pyrazin-6-yl)amino)ethyl)phenyl)-3-methyl-4-((6-methyl-2,6-diazaspiro[3.3]heptan-2-yl)methyl)benzamide]
